# Experimental data reported in ChEMBL document CHEMBL5357029, “Informatics and Computational Approaches for the Discovery and Optimization of Natural Product-Inspired Inhibitors of the SARS-CoV-2 2'-O-Methyltransferase” (J Nat Prod, 2024).
# Activity calls are given as the source filed them. The rule behind the calls is not given here.
# Tests used:
# [1] = test system: Severe acute respiratory syndrome coronavirus 2; assay: Inhibition of SARS-CoV-2 nsp10/nsp16 2'-O-methyltransferase activity expressed in NiCo21 (DE3) cells using m7GpppAUUAA and S-adenosylmethionine as substrate at 10 uM incubated for 25 mins by luminescence based MTase Glo assay
# [2] = Inhibition of SARS-CoV-2 nsp10 (1 to 139 residues)/nsp16 (1 to 298 residues) expressed in Escherichia coli BL21(DE3)RIL cells using RNA and [3H]SAM as substrate incubated for 1 hrs by SPA-based assay; set-up: species or system Severe acute respiratory syndrome coronavirus 2
# Vero = assay: (§1) Cytotoxicity against African green monkey Vero cells assessed as inhibition of cell proliferation incubated for 2 to 4 days by CellTiter 96 non-radioactive cell proliferation assay; type: toxicity, cell-based; details: chlorocebus sabaeus, vero; time 2-4 day
# [3] = Inhibition of SARS-CoV-2 nsp10/nsp16 2'-O-methyltransferase activity expressed in NiCo21 (DE3) cells using m7GpppAUUAA and S-adenosylmethionine as substrate by filter binding assay; set-up: species or system Severe acute respiratory syndrome coronavirus 2
# PBMC = assay: Cytotoxicity against human PBMC cells assessed as inhibition of cell proliferation incubated for 2 to 4 days by CellTiter 96 non-radioactive cell proliferation assay; type: toxicity, cell-based; details: time 2-4 day
# SARS-CoV-2 = assay: Antiviral activity against SARS-CoV-2 USA-WA1/2020 infected in african green monkey Vero cells assessed as reduction in viral replication by qRT-PCR analysis; type: functional, organism-based; details: Severe acute respiratory syndrome coronavirus 2, USA-WA1/2020, Vero
# [4] = as §1; type: toxicity, cell-based; details: chlorocebus sabaeus, Vero cells; time 2-4 day
SMILES,inhibition [1],IC50 [2],CC50 (Vero),IC50 [3],CC50 (PBMC),EC50 (SARS-CoV-2),CC50 [4]
Nc1ncnc2c1ncn2[C@@H]1O[C@H](C[C@@H](N)CC[C@H](N)C(=O)O)[C@@H](O)[C@H]1O [SINEFUNGIN],Active,3.4 µM,–,–,–,–,–
CC1=CC[C@H]2[C@H](C1)c1c(/C=C/c3ccc(O)cc3)cc(O)cc1OC2(C)C,Active,–,11.9 µM,13.6 µM,60.4 µM,4.7 µM,–
CC1=CC[C@H]2[C@H](C1)c1c(O)cc(/C=C/c3ccc(O)cc3)cc1OC2(C)C,Active,–,22.3 µM,13.3 µM,53.4 µM,7 µM,–
CCC(CC)COC(=O)[C@H](C)N[P@](=O)(OC[C@H]1O[C@@](C#N)(c2ccc3c(N)ncnn23)[C@H](O)[C@@H]1O)Oc1ccccc1,–,–,–,–,2 µM,2.3 µM,> 100 µM
